From ChEMBL document CHEMBL3751838, “Cytotoxic Activity of Salicylic Acid-Containing Drug Models with Ionic and Covalent Binding” (ACS Med Chem Lett, 2015)

What was measured:
[1] = Cytotoxicity against human Caco2 cells after 24 hrs by MTT assay; type: functional, cell-based, Caco-2
cells = type: ADME, cell-based; conditions: Homo sapiens, 3215LS, 24 h
Description: Cytotoxicity against human 3215LS cells after 24 hrs by MTT assay

[2] = Aqueous solubility of compound at room temperature; type: physicochemical; conditions: water

SMILES: CCCCn1cc[n+](C)c1 [listing 1 of 3 here]
- IC50 ([1]; caco-2): 18.8 mM

SMILES: CCCCCCn1cc[n+](C)c1 [listing 1 of 2 here]
- IC50 ([1]; caco-2): 6.21 mM

SMILES: CCn1cc[n+](C)c1 [listing 1 of 2 here]
- IC50 ([1]; caco-2): 32.1 mM

SMILES: CCCCn1cc[n+](C)c1 [listing 2 of 3 here]
- IC50 ([1]; caco-2): 11.2 mM

SMILES: CCCCCCn1cc[n+](C)c1 [listing 2 of 2 here]
- IC50 ([1]; caco-2): 1.96 mM

SMILES: C[n+]1ccn(CCCOC(=O)c2ccccc2O)c1
- IC50 (cells): 3.19 mM
- IC50 ([1]; Homo sapiens, Caco-2, 24 h): 2.55 mM

SMILES: C[n+]1ccn(CCOC(=O)c2ccccc2O)c1.[Cl-]
- IC50 ([1]; caco-2): 3.82 mM
- solubility [2]: 267 mg/mL

SMILES: COC(=O)[C@H](C)N
- IC50 (cells): 2.63 mM
- IC50 ([1]; Homo sapiens, Caco-2, 24 h): 6.24 mM

SMILES: C[n+]1ccn(CCOC(=O)c2ccccc2O)c1
- IC50 ([1]; Homo sapiens, Caco-2, 24 h): 4.77 mM

SMILES: CCn1cc[n+](C)c1 [listing 2 of 2 here]
- IC50 ([1]; caco-2): 5.97 mM

SMILES: CCCCn1cc[n+](C)c1 [listing 3 of 3 here]
- IC50 ([1]; caco-2): 4.34 mM

SMILES: O=C(O)c1ccccc1O [SALICYLIC ACID]
- IC50 (cells): 1.14 mM
- IC50 ([1]; Homo sapiens, Caco-2, 24 h): 5 mM
